Patent US20250059574A1, “METHODS FOR PREPARING (2S,3R)-P-METHYLSULFONYLPHENYLSERINE” (TAIZHOU UNIVERSITY, priority 2023, published 2025)

Tested on: transaldolase (Taizhou Lingfeng Biotechnology Co., Ltd., LF145)
Assay: Effect of acetaldehyde on the activity of transaldolase
Format: biochemical
Details: reaction 10 min, 35° C., HPLC, without acetaldehyde 3.31 g/L
Procedure: In a 50 mL round-bottom flask, 10 mL of a reaction system contained 14 g/L p-methylsulfonylbenzaldehyde, 10.5 g/L threonine, 1 g/L pyridoxal phosphate, and 1 mL of transaldolase (Taizhou Lingfeng Biotechnology Co., Ltd., LF145), different concentrations (0, 1 g/L, 5 g/L, 10 g/L, and 20 g/L) of acetaldehyde were respectively prepared, the mixture was shaken in a water bath at 35° C. for 10 min, and the content of D-acid produced was detected by HPLC.

## CC=O [acetaldehyde]
1 g/L acetaldehyde added
  (2S,3R)-p-methylsulfonylphenylserine produced: 1.76 g/L
5 g/L acetaldehyde added
  (2S,3R)-p-methylsulfonylphenylserine produced: 0.66 g/L
10 g/L acetaldehyde added
  (2S,3R)-p-methylsulfonylphenylserine produced: 0.303 g/L
20 g/L acetaldehyde added
  (2S,3R)-p-methylsulfonylphenylserine produced: 0.153 g/L
